Experiments:
Assay in all cases: Cancer cell growth inhibition
Format in all cases: cell-based
5637 = 5637 (bladder), 72 hr treatment
Protocol: (§1) The ability of select compounds to inhibit cell growth in various cancer cell lines are evaluated. […] The cell lines shown in Table 2 have reduced growth by at least 50% at 10 uM or lower over 72 hr treatment in growth media. The cell lines shown in Table 3 have reduced growth by at least 50% with an IC50 greater than 10 uM.
(§2) Six 10-fold compound dilutions are prepared in DMSO (e.g. 10 mM, 1 mM, 100 uM, 10 uM, 1 uM, and 0.1 uM). Single data points are acquired for each concentration. The final concentration of DMSO is 0.1%. The duration of the treatment is 72 hr. Growth inhibition is measured using Sulforhodamine B in a protein staining assay. Activity of the agents is determined by evaluation the following parameters: IC50, GI50, IC10, TGI, LC50, IC90, and GI90 (where these values can be calculated).

786O = details: Homo sapiens, 786-0; 786O (kidney), 72 hr treatment
Protocol: as §1, §2

A2780 = details: Homo sapiens; A2780 (ovary), 72 hr treatment
Protocol: as §1, §2

ACHN = details: Homo sapiens; ACHN (kidney), 72 hr treatment
Protocol: as §1, §2

BXPC3 = details: Homo sapiens, BXPC-3; BXPC3 (pancreas), 72 hr treatment
Protocol: as §1, §2

CACO2 = details: Homo sapiens, Caco-2; CACO2 (colon), 72 hr treatment
Protocol: as §1, §2

CASKI = details: Homo sapiens, Ca-Ski; CASKI (endometrial), 72 hr treatment
Protocol: as §1, §2

COLO678 = details: Homo sapiens, COLO-678; COLO678 (colon), 72 hr treatment
Protocol: as §1, §2

DU145 = details: Homo sapiens, DU-145; DU145 (prostate), 72 hr treatment
Protocol: as §1, §2

HS729 = HS729 (muscle), 72 hr treatment
Protocol: as §1, §2

HT1080 = details: Homo sapiens, HT-1080; HT1080 (connective tissue), 72 hr treatment
Protocol: as §1, §2

HT29 = details: Homo sapiens, HT-29; HT29 (colon), 72 hr treatment
Protocol: as §1, §2

IMR90 = details: Homo sapiens, IMR-90; IMR90 (lung), 72 hr treatment
Protocol: as §1, §2

JAR = JAR (placenta), 72 hr treatment
Protocol: as §1, §2

KASUMI-1 = details: Homo sapiens; KASUMI-1 (hematological), 72 hr treatment
Protocol: as §1, §2

L-363 = details: Homo sapiens; L-363 (hematological), 72 hr treatment
Protocol: as §1, §2

LOVO = details: Homo sapiens; LOVO (colon), 72 hr treatment
Protocol: as §1, §2

MDAMB436 = details: Homo sapiens, MDA-MB-436; MDAMB436 (breast), 72 hr treatment
Protocol: as §1, §2

MINO = details: Homo sapiens; MINO (hematological), 72 hr treatment
Protocol: as §1, §2

OVCAR3 = details: Homo sapiens, OVCAR-3; OVCAR3 (ovary), 72 hr treatment
Protocol: as §1, §2

OVCAR4 = details: Homo sapiens, OVCAR-4; OVCAR4 (ovary), 72 hr treatment
Protocol: as §1, §2

PANC1005 = details: Homo sapiens; PANC1005 (pancreas), 72 hr treatment
Protocol: as §1, §2

PBMC = PBMC (hematological), 72 hr treatment
Protocol: as §1, §2

RDES = details: RD-ES; RDES (bone), 72 hr treatment
Protocol: as §1, §2

SAOS2 = details: Homo sapiens, SAOS-2; SAOS2 (bone), 72 hr treatment
Protocol: as §1, §2

SKMEL28 = details: Homo sapiens, SK-MEL-28; SKMEL28 (skin), 72 hr treatment
Protocol: as §1, §2

SKMEL5 = details: Homo sapiens, SK-MEL-5; SKMEL5 (skin), 72 hr treatment
Protocol: as §1, §2

SKNSH = details: Homo sapiens, SK-N-SH; SKNSH (brain), 72 hr treatment
Protocol: as §1, §2

SU-DHL-10 = details: Homo sapiens, SU-DHL10; SU-DHL-10 (hematological), 72 hr treatment
Protocol: as §1, §2

SU-DHL-6 = details: Homo sapiens; SU-DHL-6 (hematological), 72 hr treatment
Protocol: as §1, §2

TE671 = details: Homo sapiens, TE-671; TE671 (muscle), 72 hr treatment
Protocol: as §1, §2

UMUC3 = details: Homo sapiens; UMUC3 (bladder), 72 hr treatment
Protocol: as §1, §2

| SMILES | IC50 5637 [µM] | IC50 (786O) [µM] | IC50 (A2780) [µM] | IC50 (ACHN) [µM] | IC50 (BXPC3) [µM] | IC50 (CACO2) [µM] | IC50 (CASKI) [µM] | IC50 (COLO678) [µM] | IC50 (DU145) [µM] | IC50 (HS729) [µM] | IC50 (HT1080) [µM] | IC50 (HT29) [µM] | IC50 (IMR90) [µM] | IC50 (JAR) [µM] | IC50 (KASUMI-1) [µM] | IC50 (L-363) [µM] | IC50 (LOVO) [µM] | IC50 (MDAMB436) [µM] | IC50 (MINO) [µM] | IC50 (OVCAR3) [µM] | also measured |
| --- | --- | --- | --- | --- | --- | --- | --- | --- | --- | --- | --- | --- | --- | --- | --- | --- | --- | --- | --- | --- | --- |
| CC(C)(CO)c1cc(-c2csc(-c3ccc(NS(C)(=O)=O)cc3Cl)c2)ccn1 [Compound I-8909, N-(3-chloro-4-(4-(2-(1-hydroxy-2-methylpropan-2-yl)pyridin-4-yl)thiophen-2-yl)phenyl)methanesulfonamide] | < 10 | < 10 | < 10 | < 10 | > 10 | < 10 | > 10 | < 10 | > 10 | > 10 | < 10 | < 10 | > 10 | < 10 | > 10 | < 10 | < 10 | > 10 | < 10 | < 10 | IC50 (OVCAR4): < 10 µM; IC50 (PANC1005): < 10 µM; IC50 (PBMC): > 10 µM; IC50 (RDES): > 10 µM; IC50 (SAOS2): > 10 µM; IC50 (SKMEL28): < 10 µM; IC50 (SKMEL5): < 10 µM; IC50 (SKNSH): < 10 µM; IC50 (SU-DHL-10): < 10 µM; IC50 (SU-DHL-6): < 10 µM; IC50 (TE671): < 10 µM; IC50 (UMUC3): < 10 µM |
| CC(C)(O)Cc1cc(-c2csc(-c3ccc(NS(C)(=O)=O)cc3Cl)c2)ccn1 [Compound I-9004, N-(3-chloro-4-(4-(2-(2-hydroxy-2-methylpropyl)pyridin-4-yl)thiophen-2-yl)phenyl)methanesulfonamide] | > 10 | < 10 | < 10 | < 10 | > 10 | < 10 | > 10 | < 10 | > 10 | > 10 | < 10 | < 10 | > 10 | < 10 | > 10 | < 10 | < 10 | < 10 | < 10 | < 10 | IC50 (OVCAR4): < 10 µM; IC50 (PANC1005): < 10 µM; IC50 (PBMC): > 10 µM; IC50 (RDES): > 10 µM; IC50 (SAOS2): > 10 µM; IC50 (SKMEL28): < 10 µM; IC50 (SKMEL5): < 10 µM; IC50 (SKNSH): < 10 µM; IC50 (SU-DHL-10): < 10 µM; IC50 (SU-DHL-6): < 10 µM; IC50 (TE671): < 10 µM; IC50 (UMUC3): < 10 µM |
| CS(=O)(=O)Nc1ccc(-c2cc(-c3ccnc4c3OCCO4)cs2)c(Cl)c1 [Compound I-9017, N-(3-chloro-4-(4-(2,3-dihydro-[1,4]dioxino[2,3-b]pyridin-8-yl)thiophen-2-yl)phenyl)methanesulfonamide] | < 10 | < 10 | < 10 | < 10 | < 10 | < 10 | > 10 | < 10 | < 10 | > 10 | < 10 | < 10 | > 10 | < 10 | < 10 | < 10 | < 10 | < 10 | < 10 | < 10 | IC50 (OVCAR4): < 10 µM; IC50 (PANC1005): > 10 µM; IC50 (PBMC): > 10 µM; IC50 (RDES): < 10 µM; IC50 (SAOS2): < 10 µM; IC50 (SKMEL28): < 10 µM; IC50 (SKMEL5): < 10 µM; IC50 (SKNSH): < 10 µM; IC50 (SU-DHL-10): < 10 µM; IC50 (SU-DHL-6): < 10 µM; IC50 (TE671): < 10 µM; IC50 (UMUC3): < 10 µM |
